{"source": "paper PMC2923778", "about": "(Journal of Molecular Biology, 2010)", "key": {"[1]": {"target": "T1, mSPSB4ΔSB (Mus musculus, UniProt Q8R5B6)", "T1 construct": "mSPSB1 and mSPSB4 lacking the C-terminal SOCS box region (mSPSB1ΔSB and mSPSB4ΔSB); GST (cleaved yes); made in house; host or cells: E. coli Origami B(DE3) pLysS", "T1 sequence (Q8R5B6 1-233)": "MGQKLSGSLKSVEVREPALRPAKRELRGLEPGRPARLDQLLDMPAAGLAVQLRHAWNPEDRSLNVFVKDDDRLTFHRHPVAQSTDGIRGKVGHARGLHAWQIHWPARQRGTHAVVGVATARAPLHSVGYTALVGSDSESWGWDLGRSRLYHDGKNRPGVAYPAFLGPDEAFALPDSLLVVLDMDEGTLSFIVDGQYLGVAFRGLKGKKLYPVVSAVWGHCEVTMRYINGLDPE", "assay": "ITC of hPar-4 peptides with mSPSB4ΔSB", "type": "binding, murine", "conditions": "22 °C", "experimental": "(§1) Shorter mSPSB constructs were also used for mSPSB1 and mSPSB4 lacking the C-terminal SOCS box region (mSPSB1ΔSB and mSPSB4ΔSB); they were cloned into pGEX-2T (GE Healthcare, UK). […] Each of the mSPSBΔSB constructs was expressed in Origami B(DE3) pLysS cells (Novagen, Madison, WI) as a GST fusion protein at 20 °C for 24 h with 0.5 mM IPTG added at OD600 = 0.6–0.8.\n(§2) ITC measurements on mSPSB proteins were performed at 22 °C using a MicroCalorimetry System (MicroCal, Northhampton, MA). mSPSB1, mSPSB2, and mSPSB4 were prepared by dialyzing against 20 mM Tris, 150 mM sodium chloride, and 2.5 mM calcium chloride at pH 8.0. Measurements on hSPSB proteins were performed at 20 °C using a VP-ITC titration calorimeter (MicroCal). hSPSB1 protein was dialyzed against 50 mM Hepes, pH 7.4, 150 mM NaCl, and 1 mM DTT. hSPSB2 and hSPSB4 proteins were dialyzed against 50 mM Hepes, pH 7.4, 150 mM NaCl, and 0.5 mM TCEP. Peptides for each experiment were dissolved in the corresponding dialysis buffers. ITC measurements were routinely carried out by titrating 100 μM peptide solution into 10 μM protein. Dilution enthalpies were determined separately by titrating peptide into buffer and used to correct the enthalpies of the binding of protein and peptide. Data were analyzed using a single binding site model implemented in the Origin software package provided with the instrument."}, "[2]": {"target": "mSPSB4ΔSB (murine)", "assay": "ITC; 100 μM peptide titrated into 10 μM mSPSB protein; 22 °C; 20 mM Tris, 150 mM sodium chloride, 2.5 mM calcium chloride, pH 8.0; single binding site model"}, "[3]": {"target": "T2, mSPSB2(12–224) (Mus musculus, UniProt O88838)", "T2 construct": "mSPSB2(12–224) and mutants used in this study have been described previously; GST (cleaved yes); made in house; host or cells: E. coli Origami B(DE3) pLysS", "T2 sequence (O88838 12-224)": "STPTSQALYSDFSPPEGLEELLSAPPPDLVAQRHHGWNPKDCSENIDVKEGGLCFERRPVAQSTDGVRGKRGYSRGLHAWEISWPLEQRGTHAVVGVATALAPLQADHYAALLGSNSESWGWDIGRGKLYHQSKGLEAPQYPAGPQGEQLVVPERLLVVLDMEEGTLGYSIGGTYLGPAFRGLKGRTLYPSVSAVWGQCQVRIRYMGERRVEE", "assay": "ITC of hPar-4 peptides with mSPSB2(12–224)", "type": "binding, murine", "conditions": "22 °C, pH 8.0, nm [sic]", "experimental": "as §1, §2"}, "[4]": {"target": "T3, mSPSB1ΔSB (Mus musculus, UniProt Q9D5L7)", "T3 construct": "mSPSB1 and mSPSB4 lacking the C-terminal SOCS box region (mSPSB1ΔSB and mSPSB4ΔSB); GST (cleaved yes); made in house; host or cells: E. coli Origami B(DE3) pLysS", "T3 sequence (Q9D5L7 1-231)": "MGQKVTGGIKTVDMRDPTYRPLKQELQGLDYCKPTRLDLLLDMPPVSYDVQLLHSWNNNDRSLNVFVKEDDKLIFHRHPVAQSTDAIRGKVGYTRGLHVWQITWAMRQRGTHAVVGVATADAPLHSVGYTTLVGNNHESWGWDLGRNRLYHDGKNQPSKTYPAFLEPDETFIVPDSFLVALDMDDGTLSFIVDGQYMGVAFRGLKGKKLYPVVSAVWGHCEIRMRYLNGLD", "assay": "ITC of hPar-4 peptides with mSPSB1ΔSB", "type": "binding, murine", "conditions": "22 °C", "source_text": "Shorter mSPSB constructs were also used for mSPSB1 and mSPSB4 lacking the C-terminal SOCS box region (mSPSB1ΔSB and mSPSB4ΔSB); they were cloned into pGEX-2T (GE Healthcare, UK). The shorter mSPSB2 construct excluded the first 11 residues at the N-terminus and the C-terminus SOCS box [mSPSB2(12–224)]. mSPSB2(12–224) and mutants used in this study have been described previously.[21] Each of the mSPSBΔSB constructs was expressed in Origami B(DE3) pLysS cells (Novagen, Madison, WI) as a GST fusion protein at 20 °C for 24 h with 0.5 mM IPTG added at OD600 = 0.6–0.8. The mSPSBΔSB proteins were isolated according to the method used for purifying the mSPSB–elonginBC complex.\nas §2"}, "[5]": {"test_system": "hSPSB1-elonginBC", "design": "method as in PMID 17189197", "conditions": "previous study; cited from earlier work"}, "[6]": {"conditions": "20 mM Tris, 150 mM NaCl, 2.5 mM CaCl2, pH 8.0, 100 μM peptide into 10 μM protein, ± standard error of the mean"}}, "note": "Where no end group is shown, it is not given here."}
{"molecule": "GTPAAAADNELNNNLPGGA [[A66D]hPar-4(59–77)]", "values": [{"measurement": "Kd", "setting": "[1]; [6]", "result": "255 ± 5", "unit": "nM"}]}
{"molecule": "hPar-4(59–77) (peptide)", "values": [{"measurement": "Kd", "setting": "[2]", "result": 189, "unit": "nM"}]}
{"molecule": "CC(C)C[C@H](NC(=O)[C@H](CCC(=O)O)NC(=O)[C@H](CC(N)=O)NC(=O)[C@H](C)NC(=O)[C@H](C)NC(=O)[C@H](C)NC(=O)[C@H](C)NC(=O)[C@H](C)NC(=O)[C@@H]1CCCN1C(=O)[C@@H](NC(=O)CN)[C@@H](C)O)C(=O)N[C@@H](CC(N)=O)C(=O)N[C@@H](CC(N)=O)C(=O)N[C@@H](C)C(=O)N[C@@H](CC(C)C)C(=O)N1CCC[C@H]1C(=O)NCC(=O)NCC(=O)N[C@@H](C)C(=O)O", "note": "[[N72A]hPar-4(59–77)]", "values": [{"measurement": "Kd", "setting": "[3]", "result": "> 50000", "unit": "nM"}]}
{"molecule": "AAANEINNNLPGGA [[L69I]hPar-4(64–77)]", "values": [{"measurement": "Kd", "setting": "[1]; [6]", "result": "55 ± 8", "unit": "nM"}]}
{"molecule": "AAANDINNNLPGGA [[E68D,L69I]hPar-4(64–77)]", "values": [{"measurement": "Kd", "setting": "[1]; [6]", "result": "33 ± 23", "unit": "nM"}, {"measurement": "Kd", "setting": "[4]; [6]", "result": "40 ± 5", "unit": "nM"}]}
{"molecule": "AAANELNANLPGGA [[N71A]hPar-4(64–77)]", "values": [{"measurement": "Kd", "setting": "[3]", "result": "> 50000", "unit": "nM"}, {"measurement": "Kd", "setting": "[1]; pH 8.0, nm [sic]", "result": "> 50000", "unit": "nM"}, {"measurement": "Kd", "setting": "[4]; pH 8.0, nm [sic]", "result": "> 50000", "unit": "nM"}]}
{"molecule": "AAANELANNLPGGA [[N70A]hPar-4(64–77)]", "values": [{"measurement": "Kd", "setting": "[3]", "result": "> 50000", "unit": "nM"}, {"measurement": "Kd", "setting": "[1]; pH 8.0, nm [sic]", "result": "> 50000", "unit": "nM"}, {"measurement": "Kd", "setting": "[4]; pH 8.0, nm [sic]", "result": "> 50000", "unit": "nM"}]}
{"molecule": "AAANDLNNNLPGGA [[E68D]hPar-4(64–77)]", "values": [{"measurement": "Kd", "setting": "[1]; [6]", "result": "47 ± 22", "unit": "nM"}]}
{"molecule": "[N72A]hPar-4(67–81): N72A mutant peptide of hPar-4(67–81) from a previous study (ref 10) (NELNNALPGGAPAAP; UniProt Q96IZ0 67-81, looked up, variant N72A)", "values": [{"measurement": "binding to hSPSB1-elonginBC (in words)", "setting": "[5]", "result": "poor binding"}]}
{"molecule": "AAANELNNNLPGGA [hPar-4(64–77)]", "values": [{"measurement": "Kd", "setting": "[1]; [6]", "result": "213 ± 7", "unit": "nM"}, {"measurement": "Kd", "setting": "[4]; [6]", "result": "210 ± 19", "unit": "nM"}]}
